From US20060089378A1 (priority 2004, published 2006)

Key:
[1] = molecular target: T1, Cannabinoid CB1 Receptor (Homo sapiens, UniProt P21554); assay: Binding assay for CB1 agonists or inverse agonists (radioligand competition, membranes of transfected SK-N-MC cells)
T1 construct: expressed in transfected cells

[2] = molecular target: T2, Cannabinoid CB2 Receptor (Homo sapiens, UniProt P34972); assay: Binding assay for CB2 agonists or inverse agonists (radioligand competition, membranes of transfected SK-N-MC cells); conditions: for inhibition at 0.2 µM: read-out: Cannabinoid CB2 Receptor Binding percent inhibition
T2 construct: expressed in transfected cells
T2 sequence (P34972 whole entry): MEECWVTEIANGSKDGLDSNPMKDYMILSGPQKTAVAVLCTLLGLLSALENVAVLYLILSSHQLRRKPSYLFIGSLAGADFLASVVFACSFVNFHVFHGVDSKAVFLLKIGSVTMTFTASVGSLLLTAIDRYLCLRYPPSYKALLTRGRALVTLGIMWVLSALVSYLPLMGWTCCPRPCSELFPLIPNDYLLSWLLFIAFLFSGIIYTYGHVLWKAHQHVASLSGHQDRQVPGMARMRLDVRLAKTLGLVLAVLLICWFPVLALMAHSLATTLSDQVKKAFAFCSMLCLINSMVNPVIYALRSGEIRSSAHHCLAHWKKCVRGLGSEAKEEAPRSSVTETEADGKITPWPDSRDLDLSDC

[3] = molecular target: CB1 receptor (human) (Homo sapiens, UniProt P21554); assay: cell-based
Sequence of CB1 receptor (human) (P21554 whole entry): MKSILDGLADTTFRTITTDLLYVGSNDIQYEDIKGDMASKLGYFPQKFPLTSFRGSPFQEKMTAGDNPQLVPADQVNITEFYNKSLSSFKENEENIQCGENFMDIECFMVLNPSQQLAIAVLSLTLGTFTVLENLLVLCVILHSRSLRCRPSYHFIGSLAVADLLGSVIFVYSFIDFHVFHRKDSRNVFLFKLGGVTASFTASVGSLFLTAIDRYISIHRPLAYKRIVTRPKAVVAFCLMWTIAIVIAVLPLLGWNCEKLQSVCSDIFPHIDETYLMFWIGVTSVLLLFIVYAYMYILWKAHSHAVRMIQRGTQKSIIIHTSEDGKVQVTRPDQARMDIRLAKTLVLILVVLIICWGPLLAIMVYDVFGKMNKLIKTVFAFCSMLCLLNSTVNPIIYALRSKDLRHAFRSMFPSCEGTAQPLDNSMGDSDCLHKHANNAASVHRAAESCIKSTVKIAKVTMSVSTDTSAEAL

T1 sequence (P21554 whole entry): as above

Row | Compound | IC50 [1] | inhibition at 0.2 µM [2] | EC50 [3] | Cannabinoid CB2 Receptor Binding percent inhibition ([2]; test concentration of 0.2 μM, compounds without an IC50 binding value)
1 | C[C@@H](NC(=O)c1nn(-c2ccc(Cl)cc2Cl)c2c1CN(S(C)(=O)=O)C/C2=C\c1ccc(F)cc1)c1ccccc1 [Cpd 17] | 2 nM | 36% | 6 nM | 
2 | Cc1ccc(S(=O)(=O)N2C/C(=C\c3ccc(F)cc3)c3c(c(C(=O)N[C@H](C)c4ccccc4)nn3-c3ccc(Cl)cc3Cl)C2)cc1 [Cpd 18] | 10 nM | 48% | 80 nM | 
3 | CCNC(=O)N1C/C(=C\c2ccc(F)cc2)c2c(c(C(=O)N[C@H](C)c3ccccc3)nn2-c2ccc(Cl)cc2Cl)C1 [Cpd 19, (7E)-1-(2,4-dichloro-phenyl)-7-(4-fluoro-benzylidene)-1,4,6,7-tetrahydro-pyrazolo[4,3-c]pyridine-3,5-dicarboxylic acid 5-ethylamide 3-[(1R)-(1-phenyl-ethyl)-amide]] | 7 nM | 10% | 5 nM | 
4 | CC(NC(=O)c1nn(-c2ccc(Cl)cc2Cl)c2c1CN(C(=O)OC(C)(C)C)C/C2=C\c1ccc(F)cc1)c1ccccn1 (stereo not drawn) [Cpd 20, (7E)-1-(2,4-dichloro-phenyl)-7-(4-fluoro-benzylidene)-3-(1-pyridin-2-yl-ethylcarbamoyl)-1,4,6,7-tetrahydro-pyrazolo[4,3-c]pyridine-5-carboxylic acid tert-butyl ester] | 40 nM | 14% | 20 nM | 
5 | CC(NC(=O)c1nn(-c2ccc(Cl)cc2Cl)c2c1CNC/C2=C\c1ccc(F)cc1)c1ccccn1 (stereo not drawn) [Cpd 21, (7E)-1-(2,4-dichloro-phenyl)-7-(4-fluoro-benzylidene)-4,5,6,7-tetrahydro-1H-pyrazolo[4,3-c]pyridine-3-carboxylic acid (1-pyridin-2-yl-ethyl)-amide] | 50 nM | 5% | 70 nM | 
6 | CC(=O)N1C/C(=C\c2ccc(F)cc2)c2c(c(C(=O)NC(C)c3ccccn3)nn2-c2ccc(Cl)cc2Cl)C1 (stereo not drawn) [Cpd 22, (7E)-5-acetyl-1-(2,4-dichloro-phenyl)-7-(4-fluoro-benzylidene)-4,5,6,7-tetrahydro-1H-pyrazolo[4,3-c]pyridine-3-carboxylic acid (1-pyridin-2-yl-ethyl)-amide] | 30 nM | 2% | 4 nM | 
7 | COC(=O)N1C/C(=C\c2ccc(F)cc2)c2c(c(C(=O)NC(C)c3ccccn3)nn2-c2ccc(Cl)cc2Cl)C1 (stereo not drawn) [Cpd 23, (7E)-1-(2,4-dichloro-phenyl)-7-(4-fluoro-benzylidene)-3-(1-pyridin-2-yl-ethylcarbamoyl)-1,4,6,7-tetrahydro-pyrazolo[4,3-c]pyridine-5-carboxylic acid methyl ester] | 10 nM | 18% | 4 nM | 
8 | CCNC(=O)N1C/C(=C\c2ccc(F)cc2)c2c(c(C(=O)NC(C)c3ccccn3)nn2-c2ccc(Cl)cc2Cl)C1 (stereo not drawn) [Cpd 24, (7E)-1-(2,4-dichloro-phenyl)-7-(4-fluoro-benzylidene)-1,4,6,7-tetrahydro-pyrazolo[4,3-c]pyridine-3,5-dicarboxylic acid 5-ethylamide 3-[(1-pyridin-2-yl-ethyl)-amide]] | 20 nM | 6% | 20 nM | 
9 | CC(NC(=O)c1nn(-c2ccc(Cl)cc2Cl)c2c1CN(C(=O)OCc1ccccc1)C/C2=C\c1ccc(F)cc1)c1ccccn1 (stereo not drawn) [Cpd 25, (7E)-1-(2,4-dichloro-phenyl)-7-(4-fluoro-benzylidene)-3-(1-pyridin-2-yl-ethylcarbamoyl)-1,4,6,7-tetrahydro-pyrazolo[4,3-c]pyridine-5-carboxylic acid benzyl ester] | 50 nM | 17% | 90 nM | 
10 | Cc1ccc(S(=O)(=O)N2C/C(=C\c3ccc(F)cc3)c3c(c(C(=O)NC(C)c4ccccn4)nn3-c3ccc(Cl)cc3Cl)C2)cc1 (stereo not drawn) [Cpd 26, (7E)-1-(2,4-dichloro-phenyl)-7-(4-fluoro-benzylidene)-5-(toluene-4-sulfonyl)-4,5,6,7-tetrahydro-1H-pyrazolo[4,3-c]pyridine-3-carboxylic acid (1-pyridin-2-yl-ethyl)-amide] | 30 nM | 24% | 20 nM | 
11 | CC(NC(=O)c1nn(-c2ccc(Cl)cc2Cl)c2c1CN(S(C)(=O)=O)C/C2=C\c1ccc(F)cc1)c1ccccn1 (stereo not drawn) [Cpd 27, (7E)-1-(2,4-dichloro-phenyl)-7-(4-fluoro-benzylidene)-5-methanesulfonyl-4,5,6,7-tetrahydro-1H-pyrazolo[4,3-c]pyridine-3-carboxylic acid (1-pyridin-2-yl-ethyl)-amide] | 5 nM | 16% | 6 nM | 
12 | C[C@@H](NC(=O)c1nn(-c2ccc(Cl)cc2Cl)c2c1CNC/C2=C\c1ccc(F)cc1)C1CCCCC1 [Cpd 28, (7E)-1-(2,4-dichloro-phenyl)-7-(4-fluoro-benzylidene)-4,5,6,7-tetrahydro-1H-pyrazolo[4,3-c]pyridine-3-carboxylic acid [(1R)-1-cyclohexyl-ethyl]-amide] | 20 nM | 31% | 8 nM | 
13 | CC(NC(=O)c1nn(-c2ccc(Cl)cc2Cl)c2c1CN(C)C/C2=C\c1ccc(F)cc1)c1ccccn1 (stereo not drawn) [Cpd 29, (7E)-1-(2,4-dichloro-phenyl)-7-(4-fluoro-benzylidene)-5-methyl-4,5,6,7-tetrahydro-1H-pyrazolo[4,3-c]pyridine-3-carboxylic acid (1-pyridin-2-yl-ethyl)-amide] | 60 nM | 6% | 6 nM | 
14 | C[C@@H](NC(=O)c1nn(-c2ccc(Cl)cc2Cl)c2c1CN(S(C)(=O)=O)C/C2=C\c1ccc(F)cc1)C1CCCCC1 [Cpd 30, (7E)-1-(2,4-dichloro-phenyl)-7-(4-fluoro-benzylidene)-5-methanesulfonyl-4,5,6,7-tetrahydro-1H-pyrazolo[4,3-c]pyridine-3-carboxylic acid [(1R)-1-cyclohexyl-ethyl]-amide] | 7 nM | 1% | 1 nM | 
15 | Cc1ccc(S(=O)(=O)N2C/C(=C\c3ccc(F)cc3)c3c(c(C(=O)N[C@H](C)C4CCCCC4)nn3-c3ccc(Cl)cc3Cl)C2)cc1 [Cpd 31, (7E)-1-(2,4-dichloro-phenyl)-7-(4-fluoro-benzylidene)-5-(toluene-4-sulfonyl)-4,5,6,7-tetrahydro-1H-pyrazolo[4,3-c]pyridine-3-carboxylic acid [(1R)-1-cyclohexyl-ethyl]-amide] | 30 nM |  | 1100 nM | 29%
16 | CCNC(=O)N1C/C(=C\c2ccc(F)cc2)c2c(c(C(=O)N[C@H](C)C3CCCCC3)nn2-c2ccc(Cl)cc2Cl)C1 [Cpd 32, (7E)-1-(2,4-dichloro-phenyl)-7-(4-fluoro-benzylidene)-1,4,6,7-tetrahydro-pyrazolo[4,3-c]pyridine-3,5-dicarboxylic acid 3-{[(1R)-1-cyclohexyl-ethyl]-amide} 5-ethylamide] | 20 nM | 6% | 3 nM | 
17 | CS(=O)(=O)N1C/C(=C\c2ccc(F)cc2)c2c(c(C(=O)NN3CCCCC3)nn2-c2ccc(Cl)cc2Cl)C1 [Cpd 33, (7E)-1-(2,4-dichloro-phenyl)-7-(4-fluoro-benzylidene)-5-methanesulfonyl-4,5,6,7-tetrahydro-1H-pyrazolo[4,3-c]pyridine-3-carboxylic acid piperidin-1-ylamide] | 30 nM | 15% | 9 nM | 
